ChEMBL document CHEMBL1201861, “Genomics of Drug Sensitity in Cancer screening data, Wellcome Trust Sanger Institute”

Tests used:
RT-4 = assay: SANGER: Inhibition of human RT4 cell growth in a cell viability assay.; format: functional, cell-based; conditions: Homo sapiens, RT-4
TE-441-T = assay: cells; format: functional, cell-based; conditions: Homo sapiens
Description: SANGER: Inhibition of human TE-441-T cell growth in a cell viability assay.

NCI-H187 = assay: cells; format: functional, cell-based; conditions: Homo sapiens;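 note: growth inhibition of NCI-H187 cells, read out as cell viability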
Description: SANGER: Inhibition of human NCI-H187 cell growth in a cell viability assay.

NCI-H838 = assay: cells; format: functional, cell-based; conditions: Homo sapiens;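 note: growth inhibition of human NCI-H838 cells, read out by a cell viability assay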
Description: SANGER: Inhibition of human NCI-H838 cell growth in a cell viability assay.

HuO9 = assay: cells; format: functional, cell-based, Homo sapiens; conditions: Homo sapiens, HuO9;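 note: growth inhibition of HuO9 cells, read out with a cell viability assay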
Description: SANGER: Inhibition of human HuO9 cell growth in a cell viability assay.

Caov-3 cell line = assay: cells; format: functional, cell-based; conditions: Homo sapiens;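 note: cell growth inhibition read out by a viability assay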
Description: SANGER: Inhibition of human Caov-3 cell growth in a cell viability assay.

NCI-H630 = assay: cells; format: functional, cell-based, Homo sapiens; conditions: Homo sapiens, NCI-H630;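 note: growth inhibition of NCI-H630 cells, read out with a cell viability assay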
Description: SANGER: Inhibition of human NCI-H630 cell growth in a cell viability assay.

IPC-298 = assay: SANGER: Inhibition of human IPC-298 cell growth in a cell viability assay.; format: functional, cell-based
CESS = assay: SANGER: Inhibition of human CESS cell growth in a cell viability assay.; format: functional, cell-based
SNU-475 = assay: cells; format: functional, cell-based; conditions: Homo sapiens
Description: SANGER: Inhibition of human SNU-475 cell growth in a cell viability assay.

SK-CO-1 = assay: cells; format: functional, cell-based; conditions: Homo sapiens;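 note: growth inhibition of SK-CO-1 cells, determined by a viability readout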
Description: SANGER: Inhibition of human SK-CO-1 cell growth in a cell viability assay.

PLC-PRF-5 = assay: cells; format: functional, cell-based; conditions: Homo sapiens;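 note: growth inhibition of human PLC-PRF-5 cells, read out with a viability assay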
Description: SANGER: Inhibition of human PLC-PRF-5 cell growth in a cell viability assay.

LB647-SCLC = assay: cells; format: functional, cell-based; conditions: Homo sapiens;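 note: cell growth inhibition, read out by a viability assay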
Description: SANGER: Inhibition of human LB647-SCLC cell growth in a cell viability assay.

LU-165 = assay: cells; format: functional, cell-based; conditions: Homo sapiens
Description: SANGER: Inhibition of human LU-165 cell growth in a cell viability assay.

EVSA-T = assay: cells; format: functional, cell-based, Homo sapiens; conditions: Homo sapiens, EVSA-T;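 note: growth inhibition of EVSA-T cells, read out with a cell viability assay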
Description: SANGER: Inhibition of human EVSA-T cell growth in a cell viability assay.

SJRH30 = assay: cells; format: functional, cell-based; conditions: Homo sapiens;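 note: growth inhibition of human SJRH30 cells, read out with a cell viability assay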
Description: SANGER: Inhibition of human SJRH30 cell growth in a cell viability assay.

CPC-N = assay: cells; format: functional, cell-based; conditions: Homo sapiens;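 note: growth inhibition of CPC-N cells, with a cell viability assay as the readout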
Description: SANGER: Inhibition of human CPC-N cell growth in a cell viability assay.

EW-7 = assay: SANGER: Inhibition of human EW-7 cell growth in a cell viability assay.; format: functional, cell-based; conditions: Homo sapiens, EW-7
SCLC-21H = assay: cells; format: functional, cell-based; conditions: Homo sapiens;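 note: growth inhibition of cultured human SCLC-21H cells, read out with a cell viability assay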
Description: SANGER: Inhibition of human SCLC-21H cell growth in a cell viability assay.

C-4-II = assay: SANGER: Inhibition of human C-4-II cell growth in a cell viability assay.; format: functional, cell-based
NCI-H1734 = assay: cells; format: functional, cell-based; conditions: Homo sapiens;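 note: growth inhibition of human NCI-H1734 cells, read out with a cell viability assay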
Description: SANGER: Inhibition of human NCI-H1734 cell growth in a cell viability assay.

NCI-H1618 = assay: cells; format: functional, cell-based; conditions: Homo sapiens;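 note: growth inhibition of human NCI-H1618 cells, measured by a cell viability assay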
Description: SANGER: Inhibition of human NCI-H1618 cell growth in a cell viability assay.

LOUCY = assay: cells; format: functional, cell-based; conditions: Homo sapiens;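 note: growth inhibition of human LOUCY cells, read out with a cell viability assay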
Description: SANGER: Inhibition of human LOUCY cell growth in a cell viability assay.

MES-SA = assay: cells; format: functional, cell-based, Homo sapiens; conditions: Homo sapiens, MES-SA;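 note: growth inhibition of human MES-SA cells, read out with a cell viability assay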
Description: SANGER: Inhibition of human MES-SA cell growth in a cell viability assay.

EB-3 = assay: cells; format: functional, cell-based; conditions: Homo sapiens;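 note: human EB-3 cells, growth inhibition read out via a cell viability assay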
Description: SANGER: Inhibition of human EB-3 cell growth in a cell viability assay.

NCI-H1417 = assay: cells; format: functional, cell-based; conditions: Homo sapiens;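 note: human NCI-H1417 cells, growth inhibition determined with a cell viability readout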
Description: SANGER: Inhibition of human NCI-H1417 cell growth in a cell viability assay.

MONO-MAC-6 = assay: cells; format: functional, cell-based; conditions: Homo sapiens;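 note: cell viability assay measuring growth inhibition of human MONO-MAC-6 cells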
Description: SANGER: Inhibition of human MONO-MAC-6 cell growth in a cell viability assay.

KMS-12-PE = assay: cells; format: functional, cell-based; conditions: Homo sapiens;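 note: growth inhibition of human KMS-12-PE cells, measured with a cell viability assay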
Description: SANGER: Inhibition of human KMS-12-PE cell growth in a cell viability assay.

DMS-53 = assay: cells; format: functional, cell-based, Homo sapiens; conditions: Homo sapiens, DMS-53;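 note: cell viability assay measuring growth inhibition of human DMS-53 cells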
Description: SANGER: Inhibition of human DMS-53 cell growth in a cell viability assay.

EFE-184 = assay: cells; format: functional, cell-based; conditions: Homo sapiens
Description: SANGER: Inhibition of human EFE-184 cell growth in a cell viability assay.

MDA-MB-468 = assay: cells; format: functional, cell-based; conditions: Homo sapiens
Description: SANGER: Inhibition of human MDA-MB-468 cell growth in a cell viability assay.

SNG-M = assay: cells; format: functional, cell-based; conditions: Homo sapiens
Description: SANGER: Inhibition of human SNG-M cell growth in a cell viability assay.

TE-15 = assay: cells; format: functional, cell-based; conditions: Homo sapiens;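 note: cell viability readout of growth inhibition in TE-15 cells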
Description: SANGER: Inhibition of human TE-15 cell growth in a cell viability assay.

NCI-H719 = assay: cells; format: functional, cell-based; conditions: Homo sapiens;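 note: growth inhibition of the cultured cell line, read out with a viability assay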
Description: SANGER: Inhibition of human NCI-H719 cell growth in a cell viability assay.

SK-MM-2 = assay: cells; format: functional, cell-based; conditions: Homo sapiens;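 note: growth inhibition of human SK-MM-2 cells, read out with a cell viability assay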
Description: SANGER: Inhibition of human SK-MM-2 cell growth in a cell viability assay.

TUR = assay: cells; format: functional, cell-based; conditions: Homo sapiens;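 note: growth inhibition of human TUR cells, read out with a cell viability assay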
Description: SANGER: Inhibition of human TUR cell growth in a cell viability assay.

SU-DHL-1 = assay: SANGER: Inhibition of human SU-DHL-1 cell growth in a cell viability assay.; format: functional, cell-based
DG-75 = assay: cells; format: functional, cell-based; conditions: Homo sapiens;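 note: growth inhibition of DG-75 cells, read out with a cell viability assay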
Description: SANGER: Inhibition of human DG-75 cell growth in a cell viability assay.

NCI-H2141 = assay: cells; format: functional, cell-based; conditions: Homo sapiens;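 note: growth inhibition of human NCI-H2141 cells, read out with a cell viability assay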
Description: SANGER: Inhibition of human NCI-H2141 cell growth in a cell viability assay.

DV-90 = assay: cells; format: functional, cell-based; conditions: Homo sapiens;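 note: Read-out is a viability assay, with IC50 reflecting the drop in DV-90 cell growth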
Description: SANGER: Inhibition of human DV-90 cell growth in a cell viability assay.

TT = assay: cells; format: functional, cell-based; conditions: Homo sapiens
Description: SANGER: Inhibition of human TT cell growth in a cell viability assay.

NCI-H2171 = assay: cells; format: functional, cell-based; conditions: Homo sapiens;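 note: growth inhibition of human NCI-H2171 cells, read out by a cell viability assay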
Description: SANGER: Inhibition of human NCI-H2171 cell growth in a cell viability assay.

CCF-STTG1 = assay: cells; format: functional, cell-based; conditions: Homo sapiens;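 note: growth inhibition of human CCF-STTG1 cells, determined with a cell viability read-out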
Description: SANGER: Inhibition of human CCF-STTG1 cell growth in a cell viability assay.

HCC1143 = assay: cells; format: functional, cell-based; conditions: Homo sapiens;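 note: growth inhibition of human HCC1143 cells, read out with a cell viability assay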
Description: SANGER: Inhibition of human HCC1143 cell growth in a cell viability assay.

NCI-H522 = assay: cells; format: functional, cell-based, Homo sapiens; conditions: Homo sapiens, NCI-H522;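 note: cell viability assay measuring growth inhibition of human NCI-H522 cells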
Description: SANGER: Inhibition of human NCI-H522 cell growth in a cell viability assay.

U-698-M = assay: cells; format: functional, cell-based; conditions: Homo sapiens
Description: SANGER: Inhibition of human U-698-M cell growth in a cell viability assay.

MDA-MB-134-VI = assay: cells; format: functional, cell-based; conditions: Homo sapiens
Description: SANGER: Inhibition of human MDA-MB-134-VI cell growth in a cell viability assay.

G-361 = assay: cells; format: functional, cell-based, Homo sapiens; conditions: Homo sapiens, G-361
SR = assay: cells; format: functional, cell-based; conditions: Homo sapiens
Description: SANGER: Inhibition of human SR cell growth in a cell viability assay.

COC(=O)CNC(=O)C(=O)OC
IC50 (RT-4): 649 µM
IC50 (TE-441-T): 1870 µM
IC50 (NCI-H187): 595 µM
IC50 (NCI-H838): 1340 µM
IC50 (HuO9): 589 µM
IC50 (Caov-3 cell line): 1080 µM
IC50 (NCI-H630): 3880 µM
IC50 (IPC-298): 1670 µM
IC50 (CESS): 60.8 µM
IC50 (SNU-475): 2580 µM
IC50 (SK-CO-1): > 4000 µM
IC50 (PLC-PRF-5): 1190 µM
IC50 (LB647-SCLC): 3530 µM
IC50 (LU-165): 804 µM
IC50 (EVSA-T): > 4000 µM
IC50 (SJRH30): 1550 µM
IC50 (CPC-N): > 4000 µM
IC50 (EW-7): 729 µM
IC50 (SCLC-21H): > 4000 µM
IC50 (C-4-II): 552 µM
IC50 (NCI-H1734): > 4000 µM
IC50 (NCI-H1618): > 4000 µM
IC50 (LOUCY): 10.3 µM
IC50 (MES-SA): 1070 µM
IC50 (EB-3): 49.6 µM
IC50 (NCI-H1417): 2380 µM
IC50 (MONO-MAC-6): 202 µM
IC50 (KMS-12-PE): 628 µM
IC50 (DMS-53): 181 µM
IC50 (EFE-184): 553 µM
IC50 (MDA-MB-468): > 4000 µM
IC50 (SNG-M): > 4000 µM
IC50 (TE-15): 218 µM
IC50 (NCI-H719): 566 µM
IC50 (SK-MM-2): 101 µM
IC50 (TUR): 171 µM
IC50 (SU-DHL-1): 125 µM
IC50 (DG-75): 1050 µM
IC50 (NCI-H2141): 351 µM
IC50 (DV-90): > 4000 µM
IC50 (TT): 538 µM
IC50 (NCI-H2171): > 4000 µM
IC50 (CCF-STTG1): > 4000 µM
IC50 (HCC1143): > 4000 µM
IC50 (NCI-H522): 293 µM
IC50 (U-698-M): 13.3 µM
IC50 (MDA-MB-134-VI): > 4000 µM
IC50 (G-361): 1180 µM
IC50 (SR): 4.58 µM

COc1cc([C@@H]2c3cc4c(cc3[C@@H](O[C@@H]3O[C@@H]5CO[C@@H](C)O[C@H]5[C@H](O)[C@H]3O)[C@H]3COC(=O)[C@H]23)OCO4)cc(OC)c1O [ETOPOSIDE]
IC50 (RT-4): > 16 µM
IC50 (TE-441-T): > 16 µM
IC50 (NCI-H187): 0.674 µM
IC50 (NCI-H838): > 16 µM
IC50 (HuO9): 0.926 µM
IC50 (Caov-3 cell line): > 16 µM
IC50 (NCI-H630): 9.12 µM
IC50 (IPC-298): 4.33 µM
IC50 (CESS): 0.384 µM
IC50 (SNU-475): > 16 µM
IC50 (SK-CO-1): 1.63 µM
IC50 (PLC-PRF-5): > 16 µM
IC50 (LB647-SCLC): 2 µM
IC50 (LU-165): > 16 µM
IC50 (EVSA-T): > 16 µM
IC50 (SJRH30): 4.72 µM
IC50 (CPC-N): > 16 µM
IC50 (EW-7): 0.125 µM
IC50 (SCLC-21H): > 16 µM
IC50 (C-4-II): 1.71 µM
IC50 (NCI-H1734): 1.51 µM
IC50 (NCI-H1618): > 16 µM
IC50 (LOUCY): 0.177 µM
IC50 (MES-SA): 0.458 µM
IC50 (EB-3): > 16 µM
IC50 (NCI-H1417): 4.61 µM
IC50 (MONO-MAC-6): 12.1 µM
IC50 (KMS-12-PE): 9.91 µM
IC50 (DMS-53): > 16 µM
IC50 (EFE-184): > 16 µM
IC50 (MDA-MB-468): 1.47 µM
IC50 (SNG-M): 1.16 µM
IC50 (TE-15): 0.96 µM
IC50 (NCI-H719): > 16 µM
IC50 (SK-MM-2): 9.68 µM
IC50 (TUR): 0.722 µM
IC50 (SU-DHL-1): 0.959 µM
IC50 (DG-75): > 16 µM
IC50 (NCI-H2141): 8.52 µM
IC50 (DV-90): > 16 µM
IC50 (TT): > 16 µM
IC50 (NCI-H2171): > 16 µM
IC50 (CCF-STTG1): 6.91 µM
IC50 (HCC1143): > 16 µM
IC50 (NCI-H522): 3.36 µM
IC50 (U-698-M): 12.5 µM
IC50 (MDA-MB-134-VI): > 16 µM
IC50 (G-361): 0.834 µM
IC50 (SR): 0.443 µM
